Measurements taken from patent publication US20240217982A1, “KRAS INHIBITORS” (Bristol-Myers Squibb Company, priority 2021, published 2024).

How the values were obtained:
KRAS G12D [1] = molecular target: T1, KRAS G12D (Homo sapiens (Human), UniProt P01116, G12D); test: KRAS G12D Nucleotide Exchange Assay (HTRF); assay type: biochemical; conditions: recombinant GDP-loaded KRAS G12D (20 nM), BIODIPY-labeled GDP (400 nM), recombinant SOS (10 nM), HTRF signal
Procedure: Recombinant GDP-loaded KRAS G12D (20 nM) was treated with compound at room temperature for 20 minutes in assay buffer (10 mM Hepes pH 7.4, 150 mM NaCl, 5 mM MgCl2, 0.0025% Igepal-CA630, 0.05% BSA, 1 mM DTT, 0.5 nM SA-Tb). BIODIPY-labeled GDP (400 nM) and recombinant SOS (10 nM) were added, and the reaction was incubated for 30 minutes.

KRAS G12D [2] = molecular target: T1, KRAS G12D; test: KRAS G12D RAF Disruption Assay (HTRF); assay type: biochemical; conditions: recombinant GMPPNP-loaded KRAS G12D (5 nM), GST-RAF1 RBD (9 nM), HTRF signal
Procedure: Recombinant GMPPNP-loaded KRAS G12D (5 nM) was treated with compound at room temperature for 20 minutes in assay buffer (50 mM Tris pH 7.5, 100 mM NaCl, 1 mM MgCl2, 1 mM DTT, 100 ug/mL BSA).

T1 sequence (P01116-2 other isoform, or with tags, fused parts or gaps G12D): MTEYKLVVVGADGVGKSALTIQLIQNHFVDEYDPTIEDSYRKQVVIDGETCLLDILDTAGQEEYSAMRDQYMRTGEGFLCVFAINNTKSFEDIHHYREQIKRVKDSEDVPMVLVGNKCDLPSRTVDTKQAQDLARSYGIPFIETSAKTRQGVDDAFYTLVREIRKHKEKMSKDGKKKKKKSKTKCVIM

Question: Which results are given for `CCc1cccc2cc(O)cc(-c3ccc4c(N5CC[C@H]6CC[C@@H](C5)N6)nc(OC[C@@]56CCCN5C[C@H](F)C6)nc4c3F)c12` [Example 11-5, 4-(2-{[(2R,7aS)-2-fluoro-hexahydro-1H-pyrrolizin-7a-yl]methoxy}-4-[(1S,6R)-3,9-diazabicyclo[4.2.1]nonan-3-yl]-8-fluoroquinazolin-7-yl)-5-ethylnaphthalen-2-ol]?
Answer: KRASG12D Nucleotide Exchange Assay (IC50, µM) (KRAS G12D [1]): 0.03 µM; KRASG12D RAF Disruption Assay (IC50, µM) (KRAS G12D [2]): 3.2 µM

Question: What does the source list for `C#Cc1c(F)ccc2cc(O)cc(-c3ccc4c(N5CC[C@H]6CC[C@@H](C5)N6)nc(OC[C@@]56CCCN5C[C@H](F)C6)nc4c3F)c12` [Example 11-6, 4-(2-{[(2R,7aS)-2-fluoro-hexahydro-1H-pyrrolizin-7a-yl]methoxy}-4-[(1S,6R)-3,9-diazabicyclo[4.2.1]nonan-3-yl]-8-fluoroquinazolin-7-yl)-5-ethynyl-6-fluoronaphthalen-2-ol]?
Answer: KRASG12D Nucleotide Exchange Assay (IC50, µM) (KRAS G12D [1]): 0.02 µM; KRASG12D RAF Disruption Assay (IC50, µM) (KRAS G12D [2]): 0.17 µM

Question: What does the source list for `Oc1cc(-c2ccc3c(N4CC[C@H]5CC[C@@H](C4)N5)nc(OC[C@@]45CCCN4C[C@H](F)C5)nc3c2F)c2ccccc2c1` [Example 11-7, 4-(2-{[(2R,7aS)-2-fluoro-hexahydro-1H-pyrrolizin-7a-yl]methoxy}-4-[(1S,6R)-3,9-diazabicyclo[4.2.1]nonan-3-yl]-8-fluoroquinazolin-7-yl)naphthalen-2-ol]?
Answer: KRASG12D Nucleotide Exchange Assay (IC50, µM) (KRAS G12D [1]): 0.06 µM; KRASG12D RAF Disruption Assay (IC50, µM) (KRAS G12D [2]): 5.1 µM

Question: `CCc1cccc2cccc(-c3ccc4c(N5CC[C@H]6CC[C@@H](C5)N6)nc(OC[C@@]56CCCN5C[C@H](F)C6)nc4c3F)c12` [Example 11-8, 2-{[(2R,7aS)-2-fluoro-hexahydro-1H-pyrrolizin-7a-yl]methoxy}-4-[(1S,6R)-3,9-diazabicyclo[4.2.1]nonan-3-yl]-7-(8-ethylnaphthalen-1-yl)-8-fluoroquinazoline] was tested. Which “KRASG12D Nucleotide Exchange Assay (IC50, µM)” value (KRAS G12D [1]) did it give?
Answer: The value was 2.0 µM.

Question: What about the “KRASG12D RAF Disruption Assay (IC50, µM)” value (KRAS G12D [2]) of the same compound?
Answer: The value was 54.4 µM.

Question: How did the “KRASG12D Nucleotide Exchange Assay (IC50, µM)” value (KRAS G12D [1]) turn out when `Cc1cc(N)nc(-c2ccc3c(N4CC[C@H]5CC[C@@H](C4)N5)nc(OC[C@@]45CCCN4C[C@H](F)C5)nc3c2F)c1C(F)(F)F` [Example 12-1, 6-(2-{[(2R,7aS)-2-fluoro-hexahydro-1H-pyrrolizin-7a-yl]methoxy}-4-[(1S,6R)-3,9-diazabicyclo[4.2.1]nonan-3-yl]-8-fluoroquinazolin-7-yl)-4-methyl-5-(trifluoromethyl)pyridin-2-amine] was run?
Answer: Its value is 0.03 µM.

Question: What about the “KRASG12D RAF Disruption Assay (IC50, µM)” value (KRAS G12D [2]) of the same compound?
Answer: The value was 6.3 µM.

Question: For `Cc1cc(N)nc(-c2ccc3c(N4CC[C@H]5CC[C@@H](C4)N5)nc(OC[C@]45CCCN4C[C@H](F)C5)nc3c2F)c1C(F)(F)F` [Example 12-2, 6-(2-{[(2R,7aR)-2-fluoro-hexahydro-1H-pyrrolizin-7a-yl]methoxy}-4-[(1S,6R)-3,9-diazabicyclo[4.2.1]nonan-3-yl]-8-fluoroquinazolin-7-yl)-4-methyl-5-(trifluoromethyl)pyridin-2-amine], which “KRASG12D Nucleotide Exchange Assay (IC50, µM)” value (KRAS G12D [1]) is on record?
Answer: Its value is 0.33 µM.

Question: What about the “KRASG12D RAF Disruption Assay (IC50, µM)” value (KRAS G12D [2]) of the same compound?
Answer: The value was 80.0 µM.

Question: Which “KRASG12D Nucleotide Exchange Assay (IC50, µM)” value (KRAS G12D [1]) does the source give for `Cc1cc(N)nc(-c2ccc3c(N4CC[C@H]5CC[C@@H](C4)N5)nc(OCC45CCCN4CC(F)(F)C5)nc3c2F)c1C(F)(F)F` (stereo partly drawn) [Example 12-4, 6-{4-[(1S,6R)-3,9-diazabicyclo[4.2.1]nonan-3-yl]-2-[(2,2-difluoro-hexahydro-1H-pyrrolizin-7a-yl)methoxy]-8-fluoroquinazolin-7-yl}-4-methyl-5-(trifluoromethyl)pyridin-2-amine] here?
Answer: The value was 1.1 µM.

Question: What about the “KRASG12D RAF Disruption Assay (IC50, µM)” value (KRAS G12D [2]) of the same compound?
Answer: Its value is over 100 µM.

Question: What does the source list for `Cc1cc(N)nc(-c2c(Cl)cc3c(N4CC[C@H]5CC[C@@H](C4)N5)nc(OC[C@@]45C[C@@H](F)CN4CC4(CC4)C5)nc3c2F)c1C(F)(F)F` [Example 13-1, 6-(2-{[(6′R, 7′aR)-6′-fluoro-hexahydrospiro[cyclopropane-1,2′-pyrrolizine]-7′a-yl]methoxy}-6-chloro-4-[(1S,6R)-3,9-diazabicyclo[4.2.1]nonan-3-yl]-8-fluoroquinazolin-7-yl)-4-methyl-5-(trifluoromethyl)pyridin-2-amine]?
Answer: KRASG12D Nucleotide Exchange Assay (IC50, µM) (KRAS G12D [1]): 0.01 µM; KRASG12D RAF Disruption Assay (IC50, µM) (KRAS G12D [2]): 0.22 µM
